In article PMC9112895, “Selective Inhibition of Plasmodium falciparum ATPase 6 by Artemisinins and Identification of New Classes of Inhibitors after Expression in Yeast” (Antimicrobial Agents and Chemotherapy, 2022):

Key:
PfATP6 = PfATP6 (Plasmodium falciparum, UniProt Q08853); experiment: cell-based; format: cell-based; design: pUGpd containing the yeast-optimized coding region of PfATP6 from Plasmodium falciparum; expressed in transfected cells; host or cells: Saccharomyces cerevisiae K667 and K667Δpdr5::HIS
Sequence of PfATP6 (Q08853 whole entry): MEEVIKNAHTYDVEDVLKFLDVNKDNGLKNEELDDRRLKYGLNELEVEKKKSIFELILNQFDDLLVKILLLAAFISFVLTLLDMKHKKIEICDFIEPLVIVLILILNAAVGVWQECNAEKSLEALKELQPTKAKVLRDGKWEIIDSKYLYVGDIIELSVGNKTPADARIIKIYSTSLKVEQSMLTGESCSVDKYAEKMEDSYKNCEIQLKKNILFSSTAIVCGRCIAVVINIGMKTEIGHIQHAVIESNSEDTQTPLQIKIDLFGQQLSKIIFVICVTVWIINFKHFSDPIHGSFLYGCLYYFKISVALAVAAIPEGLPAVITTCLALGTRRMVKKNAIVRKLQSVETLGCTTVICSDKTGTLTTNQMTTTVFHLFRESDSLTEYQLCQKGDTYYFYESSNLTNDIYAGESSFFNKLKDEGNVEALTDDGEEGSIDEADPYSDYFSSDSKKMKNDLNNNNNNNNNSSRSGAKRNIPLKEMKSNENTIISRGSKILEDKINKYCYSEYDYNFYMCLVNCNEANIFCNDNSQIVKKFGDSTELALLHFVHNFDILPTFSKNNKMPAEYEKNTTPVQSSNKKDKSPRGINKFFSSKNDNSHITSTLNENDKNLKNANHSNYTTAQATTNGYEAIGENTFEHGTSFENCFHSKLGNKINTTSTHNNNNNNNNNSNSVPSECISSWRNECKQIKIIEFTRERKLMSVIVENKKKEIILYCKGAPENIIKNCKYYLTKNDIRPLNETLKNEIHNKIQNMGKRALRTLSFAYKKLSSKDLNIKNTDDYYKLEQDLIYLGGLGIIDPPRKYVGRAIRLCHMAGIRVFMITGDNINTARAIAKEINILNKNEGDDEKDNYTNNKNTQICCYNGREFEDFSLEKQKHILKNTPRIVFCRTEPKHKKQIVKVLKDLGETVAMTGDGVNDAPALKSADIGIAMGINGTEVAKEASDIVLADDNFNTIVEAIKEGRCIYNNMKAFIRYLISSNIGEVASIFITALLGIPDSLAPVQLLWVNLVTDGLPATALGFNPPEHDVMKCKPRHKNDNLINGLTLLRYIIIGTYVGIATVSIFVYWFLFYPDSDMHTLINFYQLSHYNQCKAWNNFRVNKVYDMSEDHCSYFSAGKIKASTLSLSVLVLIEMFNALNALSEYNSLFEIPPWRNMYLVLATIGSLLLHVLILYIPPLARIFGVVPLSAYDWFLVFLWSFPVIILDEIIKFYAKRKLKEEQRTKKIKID
Protocol: The screening assay used here was developed from the protocol used by Pulcini et al. ([13]). A single colony of the yeast strain to be screened was picked and grown in 5 mL of selective medium until stationary phase was reached. The culture was diluted 100-fold in ampicillin-supplemented yeast extract-peptone-dextrose (YPD) medium to an OD at 620 nm (OD620) equivalent to that of lag phase. YPD medium was supplemented with an appropriate concentration of calcium, depending on the transformed strain. […] The optimal calcium concentration was periodically monitored and, if necessary, adjusted using a calcium concentration range of 10 to 30 mM. A final volume of 200 μL of the yeast culture was added to each well of a 96-well plate, with 5 technical replicates included per inhibitor. All inhibitors were dissolved in dimethyl sulfoxide (DMSO) unless otherwise stated. […] The 96-well plates were incubated at 30°C for 42 h. The yeast growth was estimated from the absorbance at 620 nm in a Tecan plate reader. Growth was normalized with the no-drug control to present data as percent growth. The data collected were analyzed using GraphPad Prism v9.0 (GraphPad software, San Diego, CA, U.S.A).

A623E PfATP6 = target: T1, A623E PfATP6 (Plasmodium falciparum, UniProt Q08853, A623E); experiment: Yeast whole-cell assay, PfATP6 A623E mutant; format: cell-based; conditions: read-out: IC50 (mean ± SD)
T1 construct: expressed in transfected cells; host or cells: Saccharomyces cerevisiae K667-derived strain
T1 sequence (Q08853 1-1228 A623E): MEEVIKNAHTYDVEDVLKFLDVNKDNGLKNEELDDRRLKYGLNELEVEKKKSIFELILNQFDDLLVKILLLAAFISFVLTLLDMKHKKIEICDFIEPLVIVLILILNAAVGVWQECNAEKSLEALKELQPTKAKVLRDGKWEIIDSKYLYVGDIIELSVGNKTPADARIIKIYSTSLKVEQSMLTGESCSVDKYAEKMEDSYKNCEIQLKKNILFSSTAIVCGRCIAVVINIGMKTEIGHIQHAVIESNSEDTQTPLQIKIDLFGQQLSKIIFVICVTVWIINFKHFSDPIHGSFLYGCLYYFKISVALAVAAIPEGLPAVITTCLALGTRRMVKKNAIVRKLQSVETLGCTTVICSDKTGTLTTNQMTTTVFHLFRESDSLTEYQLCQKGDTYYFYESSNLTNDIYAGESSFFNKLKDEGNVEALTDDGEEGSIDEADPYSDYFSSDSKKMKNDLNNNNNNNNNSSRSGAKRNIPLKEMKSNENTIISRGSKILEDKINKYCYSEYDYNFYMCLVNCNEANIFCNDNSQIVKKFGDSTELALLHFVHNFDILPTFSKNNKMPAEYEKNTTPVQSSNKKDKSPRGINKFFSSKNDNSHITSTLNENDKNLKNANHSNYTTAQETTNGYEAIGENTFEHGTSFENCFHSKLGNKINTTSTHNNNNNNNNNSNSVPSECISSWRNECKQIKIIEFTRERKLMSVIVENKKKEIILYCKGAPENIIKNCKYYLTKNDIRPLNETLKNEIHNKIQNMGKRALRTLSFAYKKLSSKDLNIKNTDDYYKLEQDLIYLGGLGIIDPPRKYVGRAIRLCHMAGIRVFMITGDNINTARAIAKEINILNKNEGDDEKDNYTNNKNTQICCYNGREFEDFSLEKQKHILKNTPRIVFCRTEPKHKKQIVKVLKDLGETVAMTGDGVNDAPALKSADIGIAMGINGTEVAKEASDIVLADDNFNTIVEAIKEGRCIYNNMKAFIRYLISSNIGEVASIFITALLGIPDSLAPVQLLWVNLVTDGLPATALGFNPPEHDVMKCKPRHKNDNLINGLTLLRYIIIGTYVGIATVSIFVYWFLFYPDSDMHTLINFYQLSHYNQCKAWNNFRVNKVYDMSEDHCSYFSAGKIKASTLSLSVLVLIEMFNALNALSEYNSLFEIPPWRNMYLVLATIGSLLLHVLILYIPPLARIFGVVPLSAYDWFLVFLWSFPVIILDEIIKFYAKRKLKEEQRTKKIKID
Protocol: Yeast transformations were performed using the method described by Gietz and Schiestl ([48]), and transformants were selected by an uracil auxotrophic marker. Transformations were confirmed by colony PCR. Both K667 and K667Δpdr5::HIS were transformed with the following plasmids: pUGpd plasmid as a vector-only control (derived from pRS316 [49]); br434 plasmid (derived from pRS316 [50]) containing the SERCA1a coding region from rabbit skeletal fast-twitch muscle (pbr434-SERCA1a); and pUGpd containing the yeast-optimized coding region of PfATP6 from Plasmodium falciparum (pUGpd-PfATP6). Site-directed mutagenesis was performed on the SERCA1a coding region to produce the mutation E255L in the protein. Mutations were also introduced into the PfATP6 coding region to produce mutations L263E, A623E, and S769N and the double mutation A623E/S769N ([13]).
The screening assay used here was developed from the protocol used by Pulcini et al. ([13]). […] The optimal calcium concentration was periodically monitored and, if necessary, adjusted using a calcium concentration range of 10 to 30 mM. […] The yeast growth was estimated from the absorbance at 620 nm in a Tecan plate reader. […] The data collected were analyzed using GraphPad Prism v9.0 (GraphPad software, San Diego, CA, U.S.A).

CC(=O)C1=C(O)[C@@H]2[C@H]3c4c[nH]c5cccc(c45)C[C@H]3C(C)(C)N2C1=O [CPA, cyclopiazonic acid]
approximate IC10 (PfATP6; fitness cost assays, drug pressure): ~5 µM
IC80 (PfATP6; read-out: approximate yeast IC80): ~5 µM
IC50 (A623E PfATP6): 5.86 µM
